Experimental data reported in patent publication US20090081314A1, “Glycemic Control, Diabetes Treatment, and Other Treatments with Acetyl Cholinesterase Inhibitors” (priority 2007, published 2009).
Where two headings read alike, the source gives them in different places.

Legend:
[1] = for fasting blood glucoses: patient eleven
[2] = Renal function (BUN, creatinine, ultrafiltration) in patients on donepezil (case studies); assay type: in vivo, human
HIV = HIV infection case studies: viral load and CD4 count; assay type: in vivo, human; conditions: for viral load / CD4 count: on antivirals
Source text: The state of HIV infection is often monitored by CD4 counts (the higher the better) and circulating virus (the lower the better).

[3] = Coronary artery disease / congestive failure case studies: blood pressure and symptoms; assay type: in vivo, human
Source text: The present disclosure provides clinical evidence of the use of an acetyl cholinesterase inhibitor for treating coronary artery diseases including heart disease.

[4] = Insulin requirement of diabetic patients on donepezil (case studies); assay type: in vivo, human; conditions: for insulin requirements at bedtime (lantus): patient eleven, before 35 units
[5] = Cephalization of body mass / weight loss case studies; conditions: patient seventeen; three months of donepezil 5 mg daily, no dieting or exercise program
[6] = Other clinical observations in diabetic patients on donepezil (case studies); assay type: in vivo, human
[7] = patient six, two months of donepezil 5 mg daily
[8] = patient three, donepezil 5 mg daily, over the next week
[9] = patient twelve, over the next week of donepezil 5 mg daily

## COc1cc2c(cc1OC)C(=O)C(CC1CCN(Cc3ccccc3)CC1)C2 (centres unmarked) [donepezil]
[1]; donepezil 10 mg daily
  fasting blood glucoses: less than 80 mg %
[1]; first month, donepezil 5 mg orally daily
  fasting blood glucoses: less than 80 mg %
[1]; patient fifteen, after one week of donepezil 5 mg daily
  fasting blood sugars: less than 100 mg %
[1]; patient five, after 3 days of donepezil 5 mg orally daily plus prandin 2 mg, before 100-120
  preprandial blood sugars: less than 80 mg %
[1]; patient five, donepezil 5 mg daily, prandin discontinued, 1800 ADA diet
  blood sugars: less than 110 mg %
[1]; patient five, donepezil 5 mg orally daily plus prandin
  blood sugar at lunch, one episode: less than 50 mg %
[1]; patient nine, donepezil 10 mg, all oral hypoglycemic agents discontinued
  other measured blood glucoses: less than 120 mg %
[1]; patient nine, over 7 days of donepezil 5 mg orally daily, micronase discontinued
  fasting blood glucose levels: less than 90 mg %
[1]; patient nineteen, donepezil 10 mg, metformin discontinued, 1800 cal ADA diet
  blood glucose values: less than 120 mg %
[1]; patient sixteen, following donepezil 5 mg daily, glipizide discontinued, before 150-200
  fasting blood sugars: less than 100 mg %
[1]; patient ten, first week of donepezil 5 mg orally daily
  fasting blood sugars: less than 100 mg %
[1]; patient ten, next 7 days of donepezil 5 mg orally daily
  blood sugars: less than 111 mg %
[1]; patient twelve, first 4 days of donepezil 5 mg daily
  fasting blood sugars: less than 100 mg %
[1]; patient twelve, next week of donepezil 5 mg daily
  fasting blood sugars: less than 100 mg %
[2]; patient fifteen, two months of donepezil 5 mg daily, before 1.8
  creatinine: 1.1
[2]; patient fifteen, two months of donepezil 5 mg daily, before 40
  BUN: 24
[2]; patient fourteen, five weeks of donepezil 5 then 10 mg, admission 2.0
  creatinine: 1.2
[2]; patient sixteen, hemodialysis, two months of donepezil 5 mg daily, before 5-6 liters three times weekly
  ultrafiltration per dialysis: less than 2 liter
[2]; patient twelve, one month of donepezil 5 mg daily, admission 1.6
  creatinine: 0.9
[2]; patient twelve, one month of donepezil 5 mg daily, admission 38
  BUN: 21
HIV; patient six, one month of donepezil 5 mg orally daily, before 1-2 million
  viral load: 1 million
HIV; patient six, one month of donepezil 5 mg orally daily, before less than 20
  CD4 count: 26
HIV; [7]
  CD4 count: 42
  viral load: non existent (below measurement detection)
HIV; patient thirteen, two months of donepezil 5 mg daily, before 24
  CD4 count: 36
HIV; patient thirteen, two months of donepezil 5 mg daily, before over 4 million
  viral load: 1.6 million
HIV; patient thirteen, two months of donepezil 5 mg daily
  weight gained: over 15 pounds
[3]; patient eight, after one month, midodrine and diuretic discontinued
  blood pressure: 120/70
[3]; patient eight, ensuing week of donepezil 5 mg daily
  blood pressure: 110/60
[3]; patient eight, over 5 days of donepezil 5 mg daily, midodrine decreased, before 85/60
  blood pressure: 100/60
[3]; patient eighteen, next 10 days of donepezil 5 mg daily
  blood pressure: 100/70
[3]; patient eighteen, over 7 days of donepezil 5 mg daily, before 80/50
  blood pressure: 90/60
[3]; patient seven, donepezil 5 mg daily, furosemide 20 mg every day
  blood pressure: 110/70
[3]; patient seven, first two weeks of donepezil 5 mg daily
  diastolic blood pressure: less than 80 mm Hg
[3]; patient seven, next two weeks of donepezil 5 mg daily
  diastolic blood pressure: 70 mm Hg
[3]; patient seventeen, follow up one month later on donepezil 5 mg daily
  blood pressure: 120/60
[3]; patient seventeen, ten days of donepezil 5 mg daily, midodrine discontinued
  blood pressure: greater than 100/60
[3]; [8]
  blood pressure: normalized
  symptoms of congestive heart failure: resolved
[3]; patient twenty, donepezil 5 mg daily, two weeks after nitrates and lisinopril discontinued
  blood pressure: 120/70
[3]; patient twenty, donepezil 5 mg daily, week after lisinopril decreased to 5 mg daily
  blood pressure: 110/70
[3]; patient twenty, over two weeks of donepezil 5 mg daily, before 80/50
  blood pressure: 100/70
[3]; patient two, after one week of donepezil 5 mg daily
  shortness of breath: no further episodes of shortness of breath
[3]; patient two, after one week of donepezil 5 mg daily with furosemide 40 mg daily
  blood pressure: 100/60
[3]; patient two, one week later, furosemide 20 mg every other day
  blood pressure: 110/70
[4]; patient eighteen, donepezil 10 mg orally daily, one month, before 5 units
  evening dose of glargine insulin: discontinued
[4]; donepezil increased to 10 mg daily
  insulin requirements at bedtime (lantus): 12 units
[4]; over one month of donepezil 5 mg orally daily
  insulin requirements at bedtime (lantus): 25 units
[4]; patient four, after one month of donepezil 5 mg daily
  pre prandial insulin coverage: eliminated
[4]; patient nineteen, donepezil 5 then 10 mg, before 12 units at bedtime
  requirement for lantus insulin: no longer required lantus insulin
[4]; patient one, after an additional month (two months) of donepezil 5 mg daily, before approx. 32 units
  daily insulin requirement over a 24 hour period: approximately 12 units
[4]; patient one, insulin pump, after one month of donepezil 5 mg orally daily, before approx. 32 units
  insulin requirement for 24 hour period: < 20 units
[4]; patient twelve, over 4 days of donepezil 5 mg daily, before 8 units
  pre-prandial insulin coverage (Novolog): 4 units
[4]; patient twelve, over 4 days of donepezil 5 mg daily, before 30 units
  evening dose of lantus insulin: 20 units
[4]; [9]
  evening dose of lantus: 10 units
  pre prandial insulin coverage: eliminated
[4]; po, 5 mg
  dose of Humulin N in the AM: 10 units
  evening dose of Humulin: 20 units
[5]
  over all weight loss: greater than 20 pounds
[6]; patient five, over the next month of donepezil 5 mg orally daily
  lymphedema in lower extremities: notable decline
[6]; patient four, one month of donepezil 5 mg daily
  symptoms of painful diabetic polyneuropathy: significantly reduced
[6]; patient fourteen (history of atrial fibrillation), donepezil 10 mg orally daily, about five weeks
  electrocardiogram: normal sinus rhythm
[6]; patient one, two months of donepezil 5 mg orally daily
  foot drop: resolved
[6]; patient seven, donepezil 5 mg orally daily
  painful symptoms of diabetic polyneuropathy: diminution
[6]; patient twelve, donepezil 5 mg daily
  edema in intact lower extremity: eliminated
